From ChEMBL document CHEMBL3739371, “Small molecules enhance functional O-mannosylation of Alpha-dystroglycan” (Bioorg Med Chem, 2015) come the findings set out here.

Assay [1] addresses T1, Dystroglycan (Cricetulus griseus) (UniProt G3H8F4).
T1 sequence (whole entry): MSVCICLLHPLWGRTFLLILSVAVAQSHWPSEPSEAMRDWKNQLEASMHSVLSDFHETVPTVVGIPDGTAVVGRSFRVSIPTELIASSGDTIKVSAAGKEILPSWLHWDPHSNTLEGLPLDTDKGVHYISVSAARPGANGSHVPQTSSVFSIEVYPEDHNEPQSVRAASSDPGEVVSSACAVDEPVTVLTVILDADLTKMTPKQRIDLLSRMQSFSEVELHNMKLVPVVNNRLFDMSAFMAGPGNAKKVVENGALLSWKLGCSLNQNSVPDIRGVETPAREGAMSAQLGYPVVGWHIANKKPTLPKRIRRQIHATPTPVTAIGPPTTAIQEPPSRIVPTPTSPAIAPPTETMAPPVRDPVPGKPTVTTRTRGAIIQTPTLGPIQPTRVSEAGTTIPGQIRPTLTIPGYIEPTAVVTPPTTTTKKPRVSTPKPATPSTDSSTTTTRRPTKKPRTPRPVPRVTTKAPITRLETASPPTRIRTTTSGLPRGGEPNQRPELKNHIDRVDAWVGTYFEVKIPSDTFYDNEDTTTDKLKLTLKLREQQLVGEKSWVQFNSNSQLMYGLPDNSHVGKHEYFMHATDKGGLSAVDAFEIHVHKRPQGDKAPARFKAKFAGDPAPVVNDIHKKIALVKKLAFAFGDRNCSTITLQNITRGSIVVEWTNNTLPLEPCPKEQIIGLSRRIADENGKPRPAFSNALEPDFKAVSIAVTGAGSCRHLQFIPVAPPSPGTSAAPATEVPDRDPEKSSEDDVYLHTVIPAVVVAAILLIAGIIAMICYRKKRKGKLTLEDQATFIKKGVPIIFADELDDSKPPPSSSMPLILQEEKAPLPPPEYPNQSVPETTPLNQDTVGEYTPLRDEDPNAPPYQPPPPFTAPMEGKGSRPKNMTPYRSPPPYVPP
Briefly: Increase of functional O-mannosylation of alpha-dystroglycan in Chinese hamster pro5 cells expressing LARGE after 48 hrs by alpha-screen assay. In kind it is cell-based. A general note: Bead proximity is the source of the signal in Alpha formats.

Assay [2] deals with T2, Dystroglycan 1 (Mus musculus) (UniProt Q62165).
T2 sequence (whole entry): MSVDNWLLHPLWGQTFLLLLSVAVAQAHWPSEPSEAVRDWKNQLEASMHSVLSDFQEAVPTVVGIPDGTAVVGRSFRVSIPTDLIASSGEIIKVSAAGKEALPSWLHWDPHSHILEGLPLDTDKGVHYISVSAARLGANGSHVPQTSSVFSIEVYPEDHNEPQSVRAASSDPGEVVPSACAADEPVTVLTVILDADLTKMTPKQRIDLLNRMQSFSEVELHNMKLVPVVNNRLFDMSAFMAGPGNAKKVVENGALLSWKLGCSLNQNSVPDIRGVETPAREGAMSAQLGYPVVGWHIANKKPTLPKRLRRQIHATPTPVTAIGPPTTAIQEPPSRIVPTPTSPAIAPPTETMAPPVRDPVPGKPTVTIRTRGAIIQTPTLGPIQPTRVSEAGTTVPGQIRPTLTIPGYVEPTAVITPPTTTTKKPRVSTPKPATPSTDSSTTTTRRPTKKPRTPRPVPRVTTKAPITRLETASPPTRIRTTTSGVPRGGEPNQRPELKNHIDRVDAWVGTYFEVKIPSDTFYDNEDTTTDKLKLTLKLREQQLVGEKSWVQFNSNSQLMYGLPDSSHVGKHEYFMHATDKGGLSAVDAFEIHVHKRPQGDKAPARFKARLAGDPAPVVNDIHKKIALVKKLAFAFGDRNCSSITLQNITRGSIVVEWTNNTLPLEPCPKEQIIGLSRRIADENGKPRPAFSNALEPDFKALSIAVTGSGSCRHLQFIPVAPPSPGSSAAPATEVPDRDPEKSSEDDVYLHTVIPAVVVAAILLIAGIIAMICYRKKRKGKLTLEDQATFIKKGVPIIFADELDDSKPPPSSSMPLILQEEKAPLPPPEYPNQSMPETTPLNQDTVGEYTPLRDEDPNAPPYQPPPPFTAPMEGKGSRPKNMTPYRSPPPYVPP
The experiment in a line: Increase of functional O-mannosylation of alpha-dystroglycan in mouse C2C12 cells expressing LARGE at 10 uM after 48 hrs by alpha-screen assay relative to control. Type of assay: cell-based.

Bounds are passed on as bounds.

In assay [1], `CCC(c1nnnn1Cc1cccs1)N1CCN(c2nc3ccc(NC(=O)c4ccccc4Cl)cc3s2)CC1` (configuration not stated) returned an EC1.5 greater than 64 µM. The same measure, in the same setting: the value for `CCC(c1nnnn1Cc1cccs1)N1CCN(c2nc3cc([N+](=O)[O-])ccc3s2)CC1` (configuration not stated) was greater than 64 µM; that for `CCC(c1nnnn1Cc1cccs1)N1CCN(c2nc3cccc(C(F)(F)F)c3s2)CC1` (configuration not stated) was 25 µM.

The compound `CC(C)n1nnnc1CN1CCN(c2nc3ccccc3s2)CC1` yielded an EC1.5 in assay [1] greater than 64 µM.

In assay [1], `COc1ccc(Cn2nnnc2CN2CCN(c3nc4ccccc4s3)CC2)cc1` yielded an EC1.5 greater than 64 µM. `CCC(c1nnnn1Cc1cccs1)N1CCN(c2nc3ccc([N+](=O)[O-])cc3s2)CC1` (configuration not stated): the EC1.5 in assay [1] stood at 32 µM. In the case of `c1ccc(C(c2nnnn2Cc2cccs2)N2CCN(c3nc4ccccc4s3)CC2)cc1` (configuration not stated), the EC1.5 in assay [1] is greater than 64 µM. Compound `CCC(c1nnnn1Cc1cccs1)N1CCN(Cc2nc3ccccc3s2)CC1` (configuration not stated) gave an EC1.5 in assay [1] of 64 µM. On the same count and under the same terms, under `CCC(c1nnnn1Cc1ccccc1)N1CCN(c2nc3ccccc3s2)CC1` (configuration not stated) stands greater than 64 µM; under `CCCC(c1nnnn1Cc1cccs1)N1CCN(c2nc3ccccc3s2)CC1` (configuration not stated), 34 µM; under `CCC(c1nnnn1Cc1cccs1)N1CCN(c2nc3cc(N)ccc3s2)CC1` (configuration not stated), 3.4 µM. `CCC(c1nnnn1Cc1cccs1)N1CCN(c2nc3cc([N+](=O)[O-])cc(F)c3s2)CC1` (configuration not stated): the EC1.5 in assay [1] was 25 µM. Compound `CCC(c1nnnn1Cc1cccs1)N1CCN(c2nc3c(N)cccc3s2)CC1` (configuration not stated) returned an EC1.5 in assay [1] of 16 µM. Compound `CCC(c1ccc(-c2nc3ccccc3s2)cc1)c1nnnn1Cc1cccs1` (configuration not stated) showed an EC1.5 in assay [1] of 49 µM. On the same count and under the same terms, under `CCC(c1nnnn1Cc1cccs1)N1CCN(c2nc3cc(F)ccc3s2)CC1` (configuration not stated) stands greater than 64 µM; under `CCC(c1nnnn1Cc1nccs1)N1CCN(c2nc3cccc(F)c3s2)CC1` (configuration not stated), 43 µM; under `CCC(c1nnnn1Cc1cccs1)N1CCN(c2nc3c(F)cc(F)cc3s2)CC1` (configuration not stated), 17 µM.

For `CCC(c1nnnn1Cc1cccs1)N1CCN(c2nc3ccc(C(=O)O)cc3s2)CC1` (configuration not stated), the EC1.5 in assay [1] amounted to 19 µM. Regarding `CCC(c1nnnn1Cc1cccs1)N1CCN(c2nc3c(F)cccc3s2)CC1` (configuration not stated), the EC1.5 in assay [1] was found to be 4.9 µM.

For the compound `CCC(c1nnnn1Cc1cccs1)N1CCN(c2nc3ccc(Cl)cc3s2)CC1` (configuration not stated), the EC1.5 in assay [1] is 13 µM. In assay [1], `CC(C)CC(c1nnnn1Cc1cccs1)N1CCN(c2nc3ccccc3s2)CC1` (configuration not stated) came in with an EC1.5 greater than 64 µM. Same read-out and setting: the value for `Fc1ccc(Cn2nnnc2CN2CCN(c3nc4ccccc4s3)CC2)cc1` was greater than 64 µM; that for `CCC(c1nnnn1Cc1cccs1)N1CCN(c2nc3cccc(Br)c3s2)CC1` (configuration not stated) was 22 µM. Consider `CCC(NCCNc1nc2cccc(F)c2s1)c1nnnn1Cc1cccs1` (configuration not stated), for which, in assay [1], the EC1.5 is greater than 64 µM. Same read-out and setting: under `CCC(c1nnnn1Cc1cccs1)N1CCN(c2nc3ccc(F)cc3s2)CC1` (configuration not stated) stands 21 µM; under `CCC(c1nnnn1Cc1cccs1)N1CCN(c2nc3cccc(F)c3s2)CC1` (configuration not stated), 2.6 µM. Take `CCC(c1nnnn1Cc1cccs1)N1CCN(c2nc3ccc(N)cc3s2)CC1` (configuration not stated): the EC1.5 in assay [1] is 11 µM. Turning to `CC(c1nnnn1Cc1cccs1)N1CCN(c2nc3ccccc3s2)CC1` (configuration not stated), in assay [1], the EC1.5 came to 7.2 µM. For `c1csc(Cn2nnnc2CN2CCN(c3nc4ccccc4s3)CC2)c1`, the Activity in assay [2] was 37%. Moreover, the EC1.5 in assay [1] turned out to be 8.7 µM. `CCC(c1nnnn1-c1ccccc1)N1CCN(c2nc3ccccc3s2)CC1` (configuration not stated) had an EC1.5 in assay [1] greater than 64 µM.

Compound `CCC(c1nnnn1Cc1cccs1)N1CCN(c2nc3ccc(C)cc3s2)CC1` (configuration not stated) showed an EC1.5 in assay [1] of 15 µM. `CCC(c1nnnn1Cc1cccs1)N1CCN(c2nc3cccc(C(=O)O)c3s2)CC1` (configuration not stated): the EC1.5 in assay [1] amounted to 22 µM. The same measure, in the same setting: under `CCC(c1nnnn1Cc1cccs1)N1CCN(c2nc3ccc(C(=O)OC)cc3s2)CC1` (configuration not stated) stands 28 µM. `CCC(c1nnnn1Cc1cccs1)N1CCN(c2nc3ccc(-c4ccccc4)cc3s2)CC1` (configuration not stated) had an EC1.5 in assay [1] greater than 64 µM. Same read-out and setting: under `CCC(c1nnnn1Cc1cccs1)N1CCN(C2=Nc3ccccc3C2)CC1` (configuration not stated) stands 28 µM; under `c1ccc2sc(N3CCN(Cc4nnnn4C4CCCC4)CC3)nc2c1`, greater than 64 µM. On to `CCC(c1nnnn1Cc1cccs1)N1CCN(c2nc3ccccc3o2)CC1` (configuration not stated), for which, in assay [1], the EC1.5 was found to be 9.5 µM. `CCC(c1nnnn1Cc1cccs1)N1CCN(c2nc3ccccc3s2)CC1` (configuration not stated) displayed an Activity in assay [2] of 56%. In addition, the EC1.5 in assay [1] was found to be 4.6 µM. Consider `CCC(c1nnnn1Cc1ccco1)N1CCN(c2nc3ccccc3s2)CC1` (configuration not stated), for which, in assay [1], the EC1.5 amounted to 9.5 µM. In assay [1], `CCC(c1nnnn1Cc1cccs1)N1CCC(c2nc3ccccc3s2)CC1` (configuration not stated) yielded an EC1.5 of 9.6 µM.

On to `CCC(c1nnnn1Cc1cccs1)N1CCN(c2nc3cccc(O)c3s2)CC1` (configuration not stated), for which the EC1.5 in assay [1] came out at 21 µM. Regarding `CCC(c1nnnn1Cc1cccs1)N1CCN(c2nc3ccc(NC(=O)CCCC[C@@H]4SC[C@@H]5NC(=O)N[C@@H]54)cc3s2)CC1` (some centres not stated), the EC1.5 in assay [1] stood at 4.3 µM. Still for that read-out and setting: under `O=C(c1nnnn1Cc1cccs1)N1CCN(c2nc3ccccc3s2)CC1` stands greater than 64 µM; under `CCC(c1nnnn1Cc1cccs1)N1CCN(c2nc3ccccc3[nH]2)CC1` (configuration not stated), 17 µM; under `CCC(c1cnnn1Cc1cccs1)N1CCN(c2nc3ccccc3s2)CC1` (configuration not stated), 48 µM.

For the compound `CCC(c1nnnn1Cc1cccs1)N1CCN(c2nc3ccc(OC)cc3s2)CC1` (configuration not stated), the EC1.5 in assay [1] was 7.1 µM. In turn, `CCC(c1nnnn1Cc1cccs1)N1CCN(c2nc3cc(OC)c(OC)c(OC)c3s2)CC1` (configuration not stated) came in with an EC1.5 in assay [1] of 6.5 µM. Take `CCC(c1nnnn1Cc1cccs1)N1CCN(c2nc3cccc(C(=O)OC)c3s2)CC1` (configuration not stated): the EC1.5 in assay [1] turned out to be 14 µM. The same measure, in the same setting: under `CCC(c1nnnn1CCc1cccs1)N1CCN(c2nc3cccc(F)c3s2)CC1` (configuration not stated) stands 64 µM; under `CCC(c1nnnn1Cc1cccs1)N1CCN(c2nc3ccc(NC(=O)c4ccccc4C)cc3s2)CC1` (configuration not stated), greater than 64 µM.
